Results published in ChEMBL document CHEMBL1148036, “Novel nematocidal agents from Curcuma comosa” (1994).
Converted amounts (≈) assume the structure as drawn.

The compounds below were run on Caenorhabditis elegans (assay: Nematocidal against Caenorhabditis elegans N2 assessed as motility after 16 hrs). Settings: N2, 16 h.
Format: functional

Going from OC(CC/C=C/c1ccccc1)CCc1ccccc1 (stereo not given) to CC(=O)OC(CC/C=C/c1ccccc1)CCc1ccccc1 (stereo not given), the EC95 rises from 0.7 µg/mL (≈ 2.63 µM) to 9 µg/mL (≈ 29.2 µM) (13-fold).

Compared with O=C(CC/C=C/c1ccccc1)CCc1ccccc1, O=C(CCc1ccccc1)C[C@@H](O)/C=C/c1ccccc1 is 9-fold lower in EC95: 9 µg/mL (≈ 34 µM) for the first, 1 µg/mL (≈ 3.57 µM) for the second.

OC(/C=C/C=C/c1ccccc1)CCc1ccccc1 (stereo not given) gave an EC95 of over 100 µg/mL.
